Laboratory results as given in publication PMC6532426 (Nature chemistry, 2019).

Target: active human CypA protein (Homo sapiens, UniProt P62937)
Assay: Surface plasmon resonance
Format: binding
Details: assays of Fig. 5 (CypA SPR, IL-2)

Chain of active human CypA protein (P62937 whole entry): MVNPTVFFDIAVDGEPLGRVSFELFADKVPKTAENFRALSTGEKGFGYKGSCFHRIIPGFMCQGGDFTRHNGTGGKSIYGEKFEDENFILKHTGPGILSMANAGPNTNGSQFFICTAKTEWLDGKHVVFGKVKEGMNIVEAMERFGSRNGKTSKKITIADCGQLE

CC1(C)CCCC(C)(C2=C[C@@H]3COC(=O)[C@@H]3CC2)C1 (stereo partly drawn) [compound 28]
immunosuppressive activity / CypA affinity in words: completely inactive | immunosuppressive activity / CypA affinity in words (listed as (–)-28): inactive

CC(=O)O[C@@H]1OC[C@H]2CC(=O)CC[C@H]21 [(-)-24]
immunosuppressive activity / CypA affinity in words: completely inactive
